Reference: ChEMBL document CHEMBL5518236, “Discovery of Clinical Candidate AZD5462, a Selective Oral Allosteric RXFP1 Agonist for Treatment of Heart Failure” (J Med Chem, 2024)

Legend:
[1] = Metabolic stability in human liver microsomes assessed as intrinsic clearance at 1 uM measured upto 30 mins by LC-MS/MS analysis; type: ADME, Microsome; settings: read-out: CLH
[2] = Metabolic stability in human hepatocytes assessed as intrinsic clearance measured per 10^6 viable cells/ml at 1 uM measured upto 120 mins by LC-MS/MS analysis; type: ADME, cell-based, Hepatocyte; settings: read-out: CLH
[3] = Metabolic stability in human liver microsomes assessed as unbound intrinsic clearance at 1 uM measured upto 30 mins by LC-MS/MS analysis; type: ADME, Microsome; settings: 0.5 h
[4] = Octanol/water partition coefficient, logD of the compound at pH 7.4 by shake flask method; type: physicochemical
[5] = Metabolic stability in human hepatocytes assessed as unbound intrinsic clearance measured per 10^6 viable cells/ml at 1 uM measured upto 120 mins by LC-MS/MS analysis; type: ADME, cell-based, Hepatocyte; settings: 2 h

microsomal CLint at 1 µM [1]	CL free [3]	logD [4]	Compound	hepatocyte CLint at 1 µM [2]	CL free [5]
36 µL/min/mg	64 µL/min/mg	3.5	COc1cc(Cl)c(O[C@H]2CC[C@@](C)(C(=O)O)CC2)cc1C(=O)N[C@@H]1[C@H]2CC[C@H](C2)[C@@H]1C(=O)NCC1(C)CCC1	4.8 µL/min/1e6 cells	14 µL/min
23 µL/min/mg	39 µL/min/mg	3.8	COc1cc(C(F)F)c(O[C@H]2CC[C@@](C)(C(=O)O)CC2)cc1C(=O)N[C@@H]1[C@H]2CC[C@H](C2)[C@@H]1C(=O)NCC1(C)CCC1	5.1 µL/min/1e6 cells	11 µL/min
27 µL/min/mg	62 µL/min/mg	3.7	COc1cc(C2CC2)c(O[C@H]2CC[C@@](C)(C(=O)O)CC2)cc1C(=O)N[C@@H]1[C@H]2CC[C@H](C2)[C@@H]1C(=O)NCC1(C)CCC1	5.3 µL/min/1e6 cells	13 µL/min
20 µL/min/mg	100 µL/min/mg	3.6	COc1cc(Cl)c(O[C@H]2CC[C@@](C)(C(=O)O)CC2)cc1C(=O)N[C@@H]1[C@@H]2CC[C@@H](C2)[C@@H]1C(=O)NCC1(C)CCC1	49 µL/min/1e6 cells	153 µL/min
20 µL/min/mg	30 µL/min/mg	2.85	COc1cc(C#N)c(O[C@H]2CC[C@@](C)(C(=O)O)CC2)cc1C(=O)N[C@@H]1[C@H]2CC[C@H](C2)[C@@H]1C(=O)NCC1(C)CCC1	5.5 µL/min/1e6 cells	10 µL/min
34 µL/min/mg	59 µL/min/mg	3.3	CC1(CNC(=O)[C@H]2[C@@H]3CC[C@@H](C3)[C@H]2NC(=O)c2cc(O[C@H]3CC[C@@](C)(C(=O)O)CC3)c(F)cc2OC(F)F)CCC1	26 µL/min/1e6 cells	52 µL/min

More lines, now with the values behind:

Compound	microsomal CLint at 1 µM [1]	CL free [3]	logD [4]	hepatocyte CLint at 1 µM [2]	CL free [5]
CC1(CNC(=O)[C@H]2[C@@H]3CC[C@@H](C3)[C@H]2NC(=O)c2cc(O[C@H]3CC[C@@](C)(C(=O)O)CC3)cc3c2OCC3)CCC1	25 µL/min/mg	30 µL/min/mg	2.9	3.3 µL/min/1e6 cells	5.1 µL/min
COc1cc(F)c(O[C@H]2CC[C@@](C)(C(=O)O)CC2)cc1C(=O)N[C@@H]1[C@H]2CC[C@H](C2)[C@@H]1C(=O)N[C@H](C)C(C)(C)C	33 µL/min/mg	50 µL/min/mg	3.4	5.9 µL/min/1e6 cells	11 µL/min
COc1cc(F)c(O[C@H]2CC[C@@](C)(c3n[nH]c(=O)o3)CC2)cc1C(=O)N[C@@H]1[C@H]2CC[C@H](C2)[C@@H]1C(=O)NCC1(C)CCC1	> 300 µL/min/mg	2.8 10^3uL/min/mg	5.4	73 µL/min/1e6 cells	562 µL/min
COc1cc(S(C)(=O)=O)c(O[C@H]2CC[C@@](C)(C(=O)O)CC2)cc1C(=O)N[C@@H]1[C@H]2CC[C@H](C2)[C@@H]1C(=O)NCC1(C)CCC1	11 µL/min/mg	14 µL/min/mg	1.9	1.2 µL/min/1e6 cells	1.7 µL/min
COc1cc(F)c(O[C@H]2C[C@@](C)(C(=O)O)C2)cc1C(=O)N[C@@H]1[C@H]2CC[C@H](C2)[C@@H]1C(=O)NCC1(C)CCC1	7.6 µL/min/mg	10 µL/min/mg	2	4.3 µL/min/1e6 cells	5.4 µL/min
COc1cc(F)c(O[C@H]2CC[C@@](C)(c3nnn[nH]3)CC2)cc1C(=O)N[C@@H]1[C@H]2CC[C@H](C2)[C@@H]1C(=O)NCC1(C)CCC1	15 µL/min/mg	29 µL/min/mg	2.8	5.8 µL/min/1e6 cells	13 µL/min
